Several values for one entry are separate records, joined by “and”; a condition that tells them apart may be missing. Equal entries are not always repeated. Where two headings read alike, the source gives them in different places. One block for each molecule: values may come before it.
How the values were obtained:
[1] = Reverse phase HPLC retention time comparison (lipophilicity); type: physicochemical; conditions: measure of lipophilicity
Excerpt: A series of compounds were produced in accord with the method of Example 1 with various substitutions of 2' deoxycytidine at the N^4 position of the dialkylaminomethylene side chain.
Because of economic considerations 2'-deoxycytidine, was used as the parent nucleoside for comparison purposes in this study.

viral replication = conditions: background; cited from earlier work
[2] = cited from earlier work
[3] = Rate of hydrolysis in phosphate buffer by UV spectroscopy and HPLC; type: physicochemical; conditions: 10 mM K-phosphate buffer, pH 7.4, read-out: half-life (t1/2) of hydrolysis (converted)
Description: The rates of hydrolysis of the different derivatives appear to depend greatly on the structure of the substituent introduced at the exocyclic NH2 group. For example, the half-life (t1/2) of N^4 -dimethylaminomethylene […] (compound 3 in Table 1) is 5 hours at 37° in 10 mM K-phosphate buffer at pH 7.4, as determined by UV spectroscopy and HPLC analysis. Under the same conditions, N^4 -diisopropylamino-methylene-2'-deoxycytidine (compound 7 in Table 1) has a t1/2 =3 days. Thus, there is an order of magnitude difference in the rate of hydrolysis of these two side chains. The variations in the susceptibility to hydrolysis provide another parameter for the optimization of the pharmacokinetic profile.

[4] = test system: human immunodeficiency virus (HIV-1, strain LAV); assay: NCI in vitro anti-HIV drug screen, antiviral activity; type: cell-based; conditions: for activity against human immunodeficiency virus: HIV-1, strain LAV, NCI In-Vitro Testing Program
Description: (§1) The protocol used in NCI's Developmental Therapeutics Program AIDS antiviral drug screening program involves plating of susceptible human "host" cells with and without virus in microculture plates, adding various concentrations of test material, incubating the plates for seven days (during which time infected, non-drug treated control cells are largely or totally destroyed by the virus), and then determining the number of remaining viable cells using a calorimetric endpoint. The dose dependent antiviral activity and cytotoxicity were determined and plotted on a graph illustrated as FIG. 1.
(§2) Two parameters are extracted from the curves illustrated in FIG. 1: the EC50, representing the concentration of drug that results in a 50% reduction of the viral cytopathic effect; and the IC50, representing the concentration of drug resulting in 50% cytotoxicity (growth inhibition derived from the normal, uninfected cultures). An in-vitro therapeutic index (TI) may be calculated as the ratio (IC50 /EC50)if both values are obtained.

HIV = assay: NCI in vitro anti-HIV drug screen, protection of CEM cells against HIV; type: cell-based; conditions: Human immunodeficiency virus 1, CCRF-CEM, 168 h; CEM cell line; read-out: concentration giving complete protection against HIV
Description: as §1, §2

[5] = NCI in vitro anti-HIV drug screen, cytotoxicity, CEM cells; type: cell-based, human; conditions: human, cem cells, CEM, read-out: IC50 (cytotoxicity)
Description: as §1, §2

CEM = assay: as above; type: cell-based, human; conditions: CEM cell line, 8 micromolar
Description: as §1, §2

[6] = NCI in vitro anti-HIV drug screen, cytotoxicity, ATH8 cells; type: cell-based; conditions: human, ATH8, test of 9-08-87, uninfected cultures, seven days, read-out: IC50 (cytotoxicity)
Description: as §1, §2

[7] = NCI in vitro anti-HIV drug screen, cytotoxicity, C3-44 cells; type: cell-based; conditions: human, C3-44, tests of 3-15-88 and 3-16-88, uninfected cultures, seven days, read-out: IC50 (cytotoxicity)
Description: as §1, §2

[8] = NCI in vitro anti-HIV drug screen, cytotoxicity, LDV-7 cells; type: cell-based; conditions: human, LDV-7, tests of 3-15-88, 3-16-88, 3-25-88, uninfected cultures, seven days, read-out: IC50 (cytotoxicity)
Description: as §1, §2

[9] = NCI in vitro anti-HIV drug screen, cytotoxicity, MT-2 cells; type: cell-based; conditions: human, MT-2, tests of 1-29-88 and 3-25-88, uninfected cultures, seven days, read-out: IC50 (cytotoxicity)
Description: as §1, §2

[10] = NCI in vitro anti-HIV drug screen, cytotoxicity, five different cell lines; type: cell-based, human; conditions: human; all five different cell lines; IC50 could not be reached up to highest concentration employed; read-out: IC50 (50% cytotoxicity)
Description: as §1, §2

[11] = test system: five different cell lines; assay: as above; type: cell-based, human; conditions: all five different cell lines, up to highest concentration employed
Description: as §1, §2

viral p24 antigen = assay: Viral p24 antigen by enzyme-linked immunosorbent assay in CEM cells; type: cell-based, HIV; conditions: FIG. 2

- RETENTION TIME [1]: 21.81 min
SMILES: CC1CCCC(C)N1C=Nc1ccn([C@H]2C[C@H](O)[C@@H](CO)O2)c(=O)n1 (some centres unmarked) [Compound 8, N^4-2,6-Dimethylpiperidino-methylene-2'-deoxycytidine]

SMILES: Nc1ncnc2c1ncn2[C@H]1CC[C@@H](CO)O1 [2', 3'-dideoxyadenosine]
- inhibition of viral replication (viral replication): effective in inhibiting viral replication

- RETENTION TIME [1]: 3.07 min
SMILES: O=c1nc(N=CN2CCOCC2)ccn1[C@H]1C[C@H](O)[C@@H](CO)O1 [Compound 2, N^4 -Morpholinomethylene-2'-deoxycytidine]

SMILES: Cc1cn([C@H]2C[C@H](N=[N+]=[N-])[C@@H](CO)O2)c(=O)[nH]c1=O [AZT]
- half-life ([2]; human, in vivo): short half-life
- therapeutic benefit ([2]; patients with AIDS or AIDS related complex (ARC)): considerable therapeutic benefit
- bone marrow toxicity ([2]; patients, ddC compared to AZT, Phase I and II trials): severe bone marrow toxicity

- RETENTION TIME [1]: 125 min
SMILES: CCCCN(C=Nc1ccn([C@H]2C[C@H](O)[C@@H](CO)O2)c(=O)n1)CCCC [Compound 9, N^4 -Di-n-butylamino-methylene-2'-dioxycytidine]

SMILES: Nc1ccn([C@H]2CC[C@@H](CO)O2)c(=O)n1 [ddC, 2', 3'-dideoxycytidine]
- inhibition of viral replication (viral replication): effective in inhibiting viral replication
- dose limiting toxicity ([2]; Phase I and II trials): peripheral neuropathy
- bone marrow toxicity ([2]; human, in vivo): much less bone marrow suppression

SMILES: Nc1ccn([C@H]2C[C@H](O)[C@@H](CO)O2)c(=O)n1 [Compound 1, 2'-Deoxycytidine, reference compound]
- RETENTION TIME [1]: 2.13 min

- RETENTION TIME [1]: 7.79 min
SMILES: O=c1nc(N=CN2CCCCC2)ccn1[C@H]1C[C@H](O)[C@@H](CO)O1 [Compound 6, N^4 -Piperidinomethylene-2' deoxycytidine]

- half-life ([3]; same conditions: 37°): 72 h
SMILES: CC(C)N(C=Nc1ccn([C@H]2C[C@H](O)[C@@H](CO)O2)c(=O)n1)C(C)C [Compound 7, N^4 -Diisopropylamino-methylene-2'-deoxycytidine]

SMILES: CN(C)C=Nc1ccn([C@H]2CC[C@@H](CO)O2)c(=O)n1 [DAM-ddC, N^4-dimethylaminomethylene-2', 3'-dideoxycytidine]
- activity against human immunodeficiency virus [4]: Significant activity
- antiviral activity ([4]; anti-HIV drug screen, FIG. 3): significant antiviral activity

SMILES: CN(C)C=Nc1ccn([C@H]2C[C@H](F)[C@@H](CO)O2)c(=O)n1 [DDFC, N^4-dimethylaminomethylene-2', 3'-dideoxy-3'-fluorocytidine]
- antiviral activity in several cell lines ([4]; FIG. 1, several cell lines): significant antiviral activity
- activity against human immunodeficiency virus [4]: Significant activity
- EC100 (HIV): 8 µM
- CC50 at 168 h ([5]; test of 1-23-88, highest concentration tested): > 200 nM and > 0.055 µg/mL
- CC50 at 168 h ([5]; tests of 1-13-88, 3-15-88, 3-25-88, 3-16-88, uninfected cultures, seven days): > 200 µM and > 56 µg/mL
- cytotoxicity at the concentration of complete protection (CEM): without any cytotoxicity
- CC50 at 168 h [6]: > 200 µM and > 56 µg/mL
- CC50 at 168 h [7]: > 200 µM and > 56 µg/mL
- CC50 at 168 h [8]: > 200 µM and > 56 µg/mL
- CC50 at 168 h [9]: > 200 µM and > 56 µg/mL
- CC50 at 168 h [10]: > 200 µM
- cytotoxicity observed [11]: uniformly very little cytotoxicity
- correlation of protection against cytopathic effect of HIV with p24 antigen (viral p24 antigen): correlated with the decrease in the presence of viral p24 antigen

- RETENTION TIME [1]: 5.16 min
SMILES: O=c1nc(N=CN2CCCC2)ccn1[C@H]1C[C@H](O)[C@@H](CO)O1 [Compound 4, N^4 -Pyrrolidinomethylene-2'-deoxycytidine]

- RETENTION TIME [1]: 3.26 min
- half-life ([3]; 37°): 5 h
SMILES: CN(C)C=Nc1ccn([C@H]2C[C@H](O)[C@@H](CO)O2)c(=O)n1 [Compound 3, N^4-dimethylaminomethylene-2'-deoxycytidine]

- RETENTION TIME [1]: 6.44 min
SMILES: CCN(C=Nc1ccn([C@H]2C[C@H](O)[C@@H](CO)O2)c(=O)n1)CC [Compound 5, N^4 -Diethylaminomethylene-2'-deoxycytidine]

Reference: US5886162A, “Lipophilic diakylaminomethylene prodrug derivatives for the inhibition of replication of viruses” (Research Foundation of State University of New York, priority 1991, dated 1999)
